Usually IC50 stands for the concentration needed to halve the response being measured.

The first assay has as its target recombinant human NUDT5 (Homo sapiens, UniProt Q9UKK9). Nature of the assay: NUDT5 inhibitor activity by malachite green reporter assay. The class given is biochemical. The conditions noted are these: Table 3; 6 nM NUDT5, 50 μM ADP-Ribose, 15 minutes at room temperature. The procedure, abridged:
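Coupled ADP-ribose hydrolysis in 10 mM Tris-acetate pH 8.0, 40 mM NaCl, 10 mM Mg acetate, 0.005% Tween-20, 1 mM DTT: 6 nM NUDT5, 50 μM ADP-Ribose, 10 U/ml alkaline phosphatase, 15 min at room temperature. Pi read by malachite green at 630 nm; compounds 100 μM–1.7 nM, 3-fold; IC50 by curve fit.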
In general terms: Reporter assays use an easily measured gene product as a stand-in for the process of interest.
In the case of `Cn1c(=O)c2c(nc(N3CC(NC(=O)OC(C)(C)C)C3)n2Cc2nnc(-c3ccc(Cl)c(Cl)c3)o2)n(C)c1=O` [Example 26, tert-butyl N-[1-(7-{[5-(3,4-dichlorophenyl)-1,3,4-oxadiazol-2-yl]methyl}-1,3-dimethyl-2,6-dioxo-2,3,6,7-tetrahydro-1H-purin-8-yl)azetidin-3-yl]carbamate], the IC50 amounted to 324 nM.
Turning to `CNc1nc2c(c(=O)n(C)c(=O)n2C)n1Cc1nnc(-c2ccc(Cl)c(Cl)c2)o1` [Example 5, 7-{[5-(3,4-dichlorophenyl)-1,3,4-oxadiazo-2-yl]methyl}-1,3-dimethyl-8-(methylamino)-2,3,6,7-tetrahydro-1H-purine-2,6-dione], the IC50 is 12.5 nM.
On the same count and under the same terms, to `Cn1c(=O)c2c(nc(N3CCCC3)n2Cc2nnc(-c3ccc(Cl)c(Cl)c3)o2)n(C)c1=O` [Example 28, 7-{[5-(3,4-dichlorophenyl)-1,3,4-oxadiazol-2-yl]methyl}-1,3-dimethyl-8-(pyrrolidin-1-yl)-2,3,6,7-tetrahydro-1H-purine-2,6-dione] belongs 37 nM.
The same measure, in the same setting: for `Cn1c(=O)c2c(nc(N3CC4CCCCC4C3)n2Cc2nnc(-c3ccc(Cl)c(Cl)c3)o2)n(C)c1=O` (stereo not shown) [Example 11, 7-{[5-(3,4-dichlorophenyl)-1,3,4-oxadiazol-2-yl]methyl}-1,3-dimethyl-8-(octahydro-1H-isoindol-2-yl)-2,3,6,7-tetrahydro-1H-purine-2,6-dione] the value was 84.6 nM.
As to `Cn1c(=O)c2c(nc(NCCO)n2Cc2nnc(-c3ccc(Cl)c(Cl)c3)o2)n(C)c1=O` [Example 2, 7-{[5-(3,4-dichlorophenyl)-1,3,4-oxadiazol-2-yl]methyl}-8-[(2-hydroxyethyl)amino]-1,3-dimethyl-2,3,6,7-tetrahydro-1H-purine-2,6-dione], the IC50 turned out to be 23.7 nM.
Same read-out and setting: to `Cn1c(=O)c2c(nc(N3CCC(O)CC3)n2Cc2nnc(-c3ccc(Cl)c(Cl)c3)o2)n(C)c1=O` [Example 37, 7-{[5-(3,4-dichlorophenyl)-1,3,4-oxadiazol-2-yl]methyl}-8-(4-hydroxypiperidin-1-yl)-1,3-dimethyl-2,3,6,7-tetrahydro-1H-purine-2,6-dione] belongs 19.8 nM.

The same assay, now with this note: Table 4; 6 nM NUDT5, 50 μM ADP-Ribose, 15 minutes at room temperature.
In the case of `Cn1c(=O)c2c(nc(N3CCNC(C(F)(F)F)C3)n2Cc2nnc(-c3ccc(Cl)c(Cl)c3)o2)n(C)c1=O` (stereo not shown) [Example 134, 7-{[5-(3,4-dichlorophenyl)-1,3,4-oxadiazol-2-yl]methyl}-1,3-dimethyl-8-[3-(trifluoromethyl)piperazin-1-yl]-2,3,6,7-tetrahydro-1H-purine-2,6-dione], the IC50 was found to be 140 nM.
Still for that read-out and setting: to `COc1ccc(-c2cc(Cn3c(Cl)nc4c3c(=O)n(C)c(=O)n4C)on2)cc1` [Example 77, 8-chloro-7-{[3-(4-methoxyphenyl)-1,2-oxazol-5-yl]methyl}-1,3-dimethyl-2,3,6,7-tetrahydro-1H-purine-2,6-dione] belongs 19700 nM; to `Cn1c(=O)c2c(nc(N3CCNCC3)n2Cc2nc(-c3ccc(Cl)cc3)no2)n(C)c1=O` [Example 70, 7-{[3-(4-chlorophenyl)-1,2,4-oxadiazol-5-yl]methyl}-1,3-dimethyl-8-(piperazin-1-yl)-2,3,6,7-tetrahydro-1H-purine-2,6-dione], 57.4 nM; to `COc1cc(-c2nnc(Cn3c(N4CCC(C(N)=O)CC4)nc4c3c(=O)n(C)c(=O)n4C)o2)ccc1C` [Example 138, 1-(7-{[5-(3-methoxy-4-methylphenyl)-1,3,4-oxadiazol-2-yl]methyl}-1,3-dimethyl-2,6-dioxo-2,3,6,7-tetrahydro-1H-purin-8-yl)piperidine-4-carboxamide], 33.4 nM.
Same read-out and setting: for `Cn1c(=O)c2c(nc(N3CCNCC3)n2Cc2cn(-c3ccc(Cl)c(Cl)c3)nn2)n(C)c1=O` [Example 144, 7-{[1-(3,4-dichlorophenyl)-1H-1,2,3-triazol-4-yl]methyl}-1,3-dimethyl-8-(piperazin-1-yl)-2,3,6,7-tetrahydro-1H-purine-2,6-dione] the value was 155 nM; for `Cn1c(=O)c2c(nc(Cl)n2Cc2nnc(-c3ccc(C(F)(F)F)cc3)o2)n(C)c1=O` [Example 102, 8-chloro-1,3-dimethyl-7-({5-[4-(trifluoromethyl)phenyl]-1,3,4-oxadiazol-2-yl}methyl)-2,3,6,7-tetrahydro-1H-purine-2,6-dione], 484 nM; for `Cn1c(=O)c2c(nc(N3CCNCC3)n2Cc2nnc(-c3cccc(F)c3)o2)n(C)c1=O` [Example 110, 7-{[5-(3-fluorophenyl)-1,3,4-oxadiazol-2-yl]methyl}-1,3-dimethyl-8-(piperazin-1-yl)-2,3,6,7-tetrahydro-1H-purine-2,6-dione], 129 nM.
Regarding `COc1ccc(-c2nnc(Cn3c(Cl)nc4c3c(=O)n(C)c(=O)n4C)o2)cc1OC` [Example 104, 8-chloro-7-{[5-(3,4-dimethoxyphenyl)-1,3,4-oxadiazol-2-yl]methyl}-1,3-dimethyl-2,3,6,7-tetrahydro-1H-purine-2,6-dione], the IC50 was over 100000 nM.
On the same count and under the same terms, to `Cn1c(=O)c2c(nc(N3CCNC(=O)C3)n2Cc2nnc(-c3ccc(Cl)c(Cl)c3)o2)n(C)c1=O` [Example 83, 7-{[5-(3,4-dichlorophenyl)-1,3,4-oxadiazol-2-yl]methyl}-1,3-dimethyl-8-(3-oxopiperazin-1-yl)-2,3,6,7-tetrahydro-1H-purine-2,6-dione] belongs 20.2 nM; to `COc1ccc(-c2nnc(Cn3c(Cl)nc4c3c(=O)n(C)c(=O)n4C)o2)cc1Cl` [Example 99, 8-chloro-7-{[5-(3-chloro-4-methoxyphenyl)-1,3,4-oxadiazol-2-yl]methyl}-1,3-dimethyl-2,3,6,7-tetrahydro-1H-purine-2,6-dione], 73 nM.
On the same count and under the same terms, to `Cn1c(=O)c2c(nc(Cl)n2Cc2nnc(-c3ccc(C#N)cc3)o2)n(C)c1=O` [Example 93, 4-{5-[(8-chloro-1,3-dimethyl-2,6-dioxo-2,3,6,7-tetrahydro-1H-purin-7-yl)methyl]-1,3,4-oxadiazol-2-yl}benzonitrile] belongs 918 nM; to `Cn1c(=O)c2c(nc(N3CCNCC3)n2Cc2nnc(-c3ccc(C#N)cc3)o2)n(C)c1=O` [Example 112], 255 nM.
The same measure, in the same setting: for `Cn1c(=O)c2c(nc(N3CCNCC3)n2Cc2nnc(-c3ccc(Cl)cc3)o2)n(C)c1=O` [Example 108, 7-{[5-(4-chlorophenyl)-1,3,4-oxadiazol-2-yl]methyl}-1,3-dimethyl-8-(piperazin-1-yl)-2,3,6,7-tetrahydro-1H-purine-2,6-dione] the value was 99 nM.
As for `COc1ccc(CNc2nc3c(c(=O)n(C)c(=O)n3C)n2Cc2nnc(-c3ccc(Cl)c(Cl)c3)o2)c(OC)c1` [Example 86, 7-{[5-(3,4-dichlorophenyl)-1,3,4-oxadiazol-2-yl]methyl}-8-{[(2,4-dimethoxyphenyl)methyl]amino}-1,3-dimethyl-2,3,6,7-tetrahydro-1H-purine-2,6-dione], the half-maximal inhibitory concentration (IC50) was 184 nM.
Still for that read-out and setting: for `Cn1c(=O)c2c(nc(Cl)n2Cc2cnc(-c3ccc(Cl)cc3)s2)n(C)c1=O` [Example 75, 8-chloro-7-{[2-(4-chlorophenyl)-1,3-thiazol-5-yl]methyl}-1,3-dimethyl-2,3,6,7-tetrahydro-1H-purine-2,6-dione] the value was 239 nM.
Turning to `COc1ccc(-c2cc(Cn3c(N4CCNCC4)nc4c3c(=O)n(C)c(=O)n4C)on2)cc1` [Example 78, 7-{[3-(4-methoxyphenyl)-1,2-oxazol-5-yl]methyl}-1,3-dimethyl-8-(piperazin-1-yl)-2,3,6,7-tetrahydro-1H-purine-2,6-dione], the IC50 stood at 491 nM.

The record behind these values is US20210128566A1, “NOVEL FUNCTIONALIZED PURINE-2,6-DIONES AND THEIR USE IN MEDICINE” (THOMAS HELLEDAYS STIFTELSE FÖR MEDICINSK FORSKNING, priority 2017, published 2021).
